# Measured values published in patent US4113856A, “Antibiotic mm 13902” (Beecham Group Limited, priority 1974, dated 1978).
# “Also recorded” adds a separate entry of the source. Where a name gives a salt, the structure may show the parent alone.
# Legend:
# Proteus morganii F = experiment: MIC by serial dilution in nutrient agar (Table 2); assay type: cell-based; conditions: ampicillin alone
# [1] = test system: Klebsiella aerogenes IP282; experiment: MIC by serial dilution in nutrient agar (Table 2); assay type: cell-based; conditions: ampicillin alone
# Staph.aureus (Russell) = experiment: MIC by serial dilution in nutrient agar (Table 2); assay type: cell-based; conditions: ampicillin alone
# Proteus mirabilis 889 = experiment: MIC by serial dilution in nutrient agar (Table 2); assay type: cell-based; conditions: ampicillin alone
# Proteus rettgeri R110 = experiment: MIC by serial dilution in nutrient agar (Table 2); assay type: cell-based; conditions: ampicillin alone
# E. coli B11 = experiment: MIC by serial dilution in nutrient agar (Table 2); assay type: cell-based; conditions: ampicillin alone
# Staph.aureus (Russell H) = experiment: MIC by serial dilution in nutrient agar (Table 2); assay type: cell-based; conditions: ampicillin alone
# E. coli JT417 = experiment: MIC by serial dilution in nutrient agar (Table 2); assay type: cell-based; conditions: ampicillin alone
# Proteus mirabilis 247 = experiment: MIC by serial dilution in nutrient agar (Table 2); assay type: cell-based; conditions: ampicillin alone
# E. coli JT39 = experiment: MIC by serial dilution in nutrient agar (Table 2); assay type: cell-based; conditions: ampicillin alone
# [2] = test system: B. subtilis, Staphylococcus aureus, Escherichia coli, Salmonella typhimurium, Proteus mirabilis, Proteus morganii and Klebsiella aerogenes; experiment: detection by bioautography after TLC on cellulose (in words); assay type: cell-based, bacteria (various species)
# carbonic anhydrase = experiment: enzyme inhibition (general enzyme poison check); assay type: biochemical; conditions: at concentrations in excess of those required to inhibit E. coli β-lactamase
# urease = experiment: enzyme inhibition (general enzyme poison check); assay type: biochemical; conditions: at concentrations in excess of those required to inhibit E. coli β-lactamase
# [3] = test system: β-lactamase of Klebsiella aerogenes; experiment: β-lactamase inhibition (in words); assay type: biochemical
# Escherichia coli 10418 = experiment: bioautography zone diameter (Table 4); assay type: cell-based; conditions: TLC cellulose, butanol/isopropyl alcohol/water 7:7:6
# Klebsiella aerogenes [4] = experiment: bioautography zone diameter (Table 4); assay type: cell-based; conditions: TLC cellulose, butanol/isopropyl alcohol/water 7:7:6
# [5] = test system: β-lactamase of Staphylococcus aureus; experiment: β-lactamase inhibition (in words); assay type: biochemical
# Escherichia coli 311 = experiment: bioautography zone diameter (Table 4); assay type: cell-based; conditions: TLC cellulose, butanol/isopropyl alcohol/water 7:7:6
# chymotrypsin = experiment: enzyme inhibition (general enzyme poison check); assay type: biochemical; conditions: at concentrations in excess of those required to inhibit E. coli β-lactamase
# monoamine oxidase = experiment: enzyme inhibition (general enzyme poison check); assay type: biochemical; conditions: at concentrations in excess of those required to inhibit E. coli β-lactamase
# Proteus morganii = experiment: bioautography zone diameter (Table 4); assay type: cell-based; conditions: TLC cellulose, butanol/isopropyl alcohol/water 7:7:6
# trypsin = experiment: enzyme inhibition (general enzyme poison check); assay type: biochemical; conditions: at concentrations in excess of those required to inhibit E. coli β-lactamase
# [6] = test system: Escherichia coli β-lactamase; experiment: β-lactamase inhibition (in words); assay type: biochemical
# From the text: (§1) In a further experiment, the two substances were separated on a cellulose thin layer developed with isopropanol:water (8:2) and extracted from the cellulose with phosphate buffer.
# Enterobacter aerogenes = experiment: bioautography zone diameter (Table 4); assay type: cell-based; conditions: TLC cellulose, butanol/isopropyl alcohol/water 7:7:6
# Bacillus subtilis = experiment: bioautography zone diameter (Table 4); assay type: cell-based; conditions: TLC cellulose, butanol/isopropyl alcohol/water 7:7:6
# Klebsiella aerogenes [7] = experiment: synergy with benzylpenicillin; assay type: cell-based; conditions: extracts from cellulose thin layer
# From the text: as §1
# [8] = test system: Staphylococcus aureus(Oxford); experiment: bioautography zone diameter (Table 4); assay type: cell-based; conditions: TLC cellulose, butanol/isopropyl alcohol/water 7:7:6
# [9] = test system: various species including strains of Staphylococcus aureus, Bacillus subtilis, Escherichia coli, Klebsiella aerogenes, Proteus mirabilis; experiment: antibacterial activity against various species (in words); assay type: cell-based, bacteria (various species); conditions: sodium salt
# dopa decarboxylase = experiment: enzyme inhibition (general enzyme poison check); assay type: biochemical; conditions: at concentrations in excess of those required to inhibit E. coli β-lactamase
# [10] = test system: Staphylococcus aureus(Russell); experiment: bioautography zone diameter (Table 4); assay type: cell-based; conditions: TLC cellulose, butanol/isopropyl alcohol/water 7:7:6
# [11] = test system: Escherichia coli, Klebsiella aerogenes, Proteus mirabilis, Proteus morganii and Staphylococcus aureus Russell; experiment: synergy with ampicillin (in words); assay type: cell-based, bacteria (various species); conditions: mixed with ampicillin
# stability = assay type: physicochemical
# solubility = conditions: sodium salt
# [12] = activity in arbitrary units per mg; conditions: Example 3
# Description: The material produced above was arbitrarily assigned an activity of 340 l/ml. Assays were determined as described in Description 3.
smiles,measurement,setting,value
CC1(C)S[C@@H]2[C@H](NC(=O)[C@H](N)c3ccccc3)C(=O)N2[C@H]1C(=O)O [Ampicillin],minimum inhibitory concentration,Proteus morganii F,50
same,minimum inhibitory concentration,[1],50
same,minimum inhibitory concentration,Staph.aureus (Russell),250
same,minimum inhibitory concentration,Proteus mirabilis 889,> 500
same,minimum inhibitory concentration,Proteus rettgeri R110,250
same,minimum inhibitory concentration,E. coli B11,> 500
same,minimum inhibitory concentration,Staph.aureus (Russell H),> 500
same,minimum inhibitory concentration,E. coli JT417,250
same,minimum inhibitory concentration,Proteus mirabilis 247,> 500
same,minimum inhibitory concentration,E. coli JT39,> 500
CC(=O)N/C=C/[S+]([O-])C1=C(C(=O)O)N2C(=O)C(C(C)OS(=O)(=O)O)C2C1 (centres unmarked) [MM 4550A],detection by bioautography,[2],may be detected by bioautography on a variety of organisms
same,inhibition of carbonic anhydrase,carbonic anhydrase,does not inhibit
same,inhibition of urease,urease,does not inhibit
same,β-lactamase inhibition,[3],possesses enzyme inhibitory activity
same,Zone Diameter on Bioautography,Escherichia coli 10418,20.0 mm
same,Zone Diameter on Bioautography,Klebsiella aerogenes [4],20.0 mm
same,β-lactamase inhibition,[5],possesses enzyme inhibitory activity
same,Zone Diameter on Bioautography,Escherichia coli 311,17.5 mm
same,inhibition of chymotrypsin,chymotrypsin,does not inhibit
same,inhibition of monoamine oxidase,monoamine oxidase,does not inhibit
same,Zone Diameter on Bioautography,Proteus morganii,16.0 mm
same,inhibition of trypsin,trypsin,does not inhibit
same,β-lactamase inhibition,[6],possesses enzyme inhibitory activity; also recorded: shown to be inhibitors
same,Zone Diameter on Bioautography,Enterobacter aerogenes,6.5 mm
same,Zone Diameter on Bioautography,Bacillus subtilis,24.0 mm
same,synergy with benzylpenicillin,Klebsiella aerogenes [7],shown to be synergistic with benzylpenicillin
same,Zone Diameter on Bioautography,[8],13.0 mm
same,antibacterial activity,[9],possesses antibacterial activity
same,inhibition of dopa decarboxylase,dopa decarboxylase,does not inhibit
same,Zone Diameter on Bioautography,[10],12.0 mm
same,synergy with ampicillin,[11],synergyses its activity
CC(=O)N/C=C/SC1=C(C(=O)O)N2C(=O)C(C(C)OS(=O)(=O)O)C2C1 (centres unmarked) [MM 13902],detection by bioautography,[2],may be detected by bioautography on a variety of organisms
same,Zone Diameter on Bioautography,Klebsiella aerogenes [4],20.0 mm
same,stability,stability,tends to be unstable when in the unsalted acid form; also recorded: not sufficiently stable
same,β-lactamase inhibition,[6],shown to be inhibitors
same,Zone Diameter on Bioautography,Enterobacter aerogenes,No Zone
same,"solubility in chloroform, diethylether and hydrocarbons",solubility,substantially insoluble
same,solubility in methanol,solubility,soluble
same,solubility in water,solubility,highly soluble
same,synergy with benzylpenicillin,Klebsiella aerogenes [7],shown to be synergistic with benzylpenicillin
same,Zone Diameter on Bioautography,[8],4.0 mm
same,antibacterial activity,[9],possessed antibacterial activity
same,activity,"[12]; partially purified salt, brown solid","37,000 units/mg"
same,Zone Diameter on Bioautography,[10],4.0 mm
same,synergy with ampicillin,[11],synergizes its activity
CC(=O)NC=CSC1=C(C(=O)O)N2C(=O)C(C(C)OS(=O)(=O)O)C2C1 (centres unmarked) [di-sodium salt of MM 13902],activity,"[12]; di-sodium salt after cellulose chromatography, yellowish powder","73,000 units/mg"
CC(=O)NC=CSC1=C(C(=O)O)N2C(=O)C(C(C)OS(=O)(=O)O)C2C1 (centres unmarked) [monobasic salts of MM 13902],stability,stability,not sufficiently stable
